# Measured values published in patent US20250312469A1 (CANGET BIOTEKPHARMA, priority 2024, published 2025).
# Where two headings read alike, the source gives them in different places. Marks after values point to notes of the source that are not given here.
# [1] = Female, 4.69→ 2 mg/kg/wk, Day 15
# [2] = female rats, 4.69→2 mg/kg/wk, Day 15
# [3] = female rats, Group 3, 3.75/2.5 mg/kg/wk oral, Day 15
# [4] = female rats, Group 4, 4.69/2 mg/kg/wk oral, Day 15
# [5] = male rats, 4.69→2 mg/kg/wk, Day 15, 2 animals
# [6] = male rats, Group 2, 3 mg/kg/wk, Day 15
smiles,measurement,setting,value
CCC1(O)C(=O)OCc2c1cc1n(c2=O)Cc2cc3cc4c(cc3nc2-1)OCO4 (centres unmarked) [FL118],"decrease of body weight, males, Day 14",3 mg/kg/wk,18.15%
same,"decrease of body weight, males, Day 14",3.75→2.5 mg/kg/wk,17.41%
same,mortality,4.69 (day 1) and 2 mg/kg/wk (day 8),two male mice died on day 6 and day 12
same,"decrease of body weight, males, Day 14",4.69→2 mg/kg/wk,47.53%
same,"#LYMP, percent difference in mean values from concurrent controls",[1],−37.76%
same,"WBC, percent difference in mean values from concurrent controls",[1],−33.69%
same,"WBC, percent difference in mean values from concurrent controls","Male, 3 mg/kg/wk, Day 15",−16.11%
same,"WBC, percent difference in mean values from concurrent controls","Male, 3.75→ 2.5 mg/kg/wk, Day 15",−11.98%
same,"#LYMP, percent difference in mean values from concurrent controls","Male, 4.69→ 2 mg/kg/wk, Day 15",−57.17%
same,"WBC, percent difference in mean values from concurrent controls","Male, 4.69→ 2 mg/kg/wk, Day 15",−52.17%
same,"ALT, percent difference in mean values from concurrent controls",[2],122%
same,"sGLU, percent difference in mean values from concurrent controls",[2],−19.47%
same,"#BASO, basophils, absolute, Mean",[3],0.01 10^3/μL
same,"#EOS, eosinophils, absolute, Mean",[3],0.07 10^3/μL
same,"#LYMP, lymphocytes, absolute, Mean",[3],5.87 10^3/μL
same,"#MONO, monocytes, absolute, Mean",[3],0.17 10^3/μL
same,"#NEUT, neutrophils, absolute, Mean",[3],0.87 10^3/μL
same,"% BASO, basophils, percent, Mean",[3],0.2%
same,"% EOS, eosinophils, percent, Mean",[3],1.0%
same,"% LYMP, lymphocytes, percent, Mean",[3],83.5%
same,"% MONO, monocytes, percent, Mean",[3],2.4%
same,"% NEUT, neutrophils, percent, Mean",[3],12.1%
same,"% RET, reticulocytes, percent, Mean",[3],5.05%
same,"ALB, albumin, Mean",[3],37.5 g/L
same,"ALP, alkaline phosphatase, Mean",[3],83 U/L
same,"ALT, alanine aminotransferase, Mean",[3],33 U/L
same,"AST, aspartate aminotransferase, Mean",[3],89 U/L
same,"BIL-T, total bilirubin, Mean",[3],1.59 µmol/L
same,"CK, creatine kinase, Mean",[3],247 U/L
same,"CRE, creatinine, Mean",[3],24 µmol/L
same,"Ca, calcium, Mean",[3],2.42 mmol/L
same,"GLB, globulin, Mean",[3],23.0 g/L
same,"HCT, hematocrit, Mean",[3],19.8%
same,"HGB, hemoglobin, Mean",[3],13.2 g/dL
same,"K, potassium, Mean",[3],4.3 mmol/L
same,"MCH, mean corpuscular hemoglobin, Mean",[3],19.3 pg
same,"MCHC, mean corpuscular hemoglobin concentration, Mean",[3],33.3 g/dL
same,"MCV, mean corpuscular volume, Mean",[3],58.0 fL
same,"MPV, mean platelet volume, Mean",[3],6.8 fL
same,"Na, sodium, Mean",[3],142 mmol/L
same,"P, inorganic phosphorus, Mean",[3],2.20 mmol/L
same,"PLT, platelet count, Mean",[3],1295 10^3/μL
same,"RBC, red blood cell, Mean",[3],6.88 10^6/μL
same,"RDW, RBC distribution width, Mean",[3],12.9* %
same,"TCHO, total cholesterol, Mean",[3],1.70 mmol/L
same,"TG, triglyceride, Mean",[3],0.26 mmol/L
same,"UREA, urea, Mean",[3],6.29 mmol/L
same,"WBC, white blood cell, Mean",[3],7.03 10^3/μL
same,"sGLU, glucose, Mean",[3],9.43 mmol/L
same,"#BASO, basophils, absolute, Mean",[4],0.01 10^3/μL
same,"#EOS, eosinophils, absolute, Mean",[4],0.05 10^3/μL
same,"#LYMP, lymphocytes, absolute, Mean",[4],4.03 10^3/μL
same,"#MONO, monocytes, absolute, Mean",[4],0.13 10^3/μL
same,"#NEUT, neutrophils, absolute, Mean",[4],0.62 10^3/μL
same,"% BASO, basophils, percent, Mean",[4],0.1%
same,"% EOS, eosinophils, percent, Mean",[4],1.0%
same,"% LYMP, lymphocytes, percent, Mean",[4],82.7%
same,"% MONO, monocytes, percent, Mean",[4],2.9%
same,"% NEUT, neutrophils, percent, Mean",[4],12.7%
same,"% RET, reticulocytes, percent, Mean",[4],4.79%
same,"ALB, albumin, Mean",[4],36.6 g/L
same,"ALP, alkaline phosphatase, Mean",[4],88 U/L
same,"ALT, alanine aminotransferase, Mean",[4],75 U/L
same,"AST, aspartate aminotransferase, Mean",[4],222 U/L
same,"BIL-T, total bilirubin, Mean",[4],2.66 µmol/L
same,"CK, creatine kinase, Mean",[4],427 U/L
same,"CRE, creatinine, Mean",[4],24 µmol/L
same,"Ca, calcium, Mean",[4],2.37 mmol/L
same,"GLB, globulin, Mean",[4],22.0 g/L
same,"HCT, hematocrit, Mean",[4],40.0%
same,"HGB, hemoglobin, Mean",[4],13.6 g/dL
same,"K, potassium, Mean",[4],4.6 mmol/L
same,"MCH, mean corpuscular hemoglobin, Mean",[4],19.6 pg
same,"MCHC, mean corpuscular hemoglobin concentration, Mean",[4],33.8 g/dL
same,"MCV, mean corpuscular volume, Mean",[4],57.8 fL
same,"MPV, mean platelet volume, Mean",[4],6.7 fL
same,"Na, sodium, Mean",[4],142 mmol/L
same,"P, inorganic phosphorus, Mean",[4],1.92 mmol/L
same,"PLT, platelet count, Mean",[4],1278 10^3/μL
same,"RBC, red blood cell, Mean",[4],6.94 10^6/μL
same,"RDW, RBC distribution width, Mean",[4],13.7* %
same,"TCHO, total cholesterol, Mean",[4],1.37 mmol/L
same,"TG, triglyceride, Mean",[4],0.29 mmol/L
same,"TP, total protein, Mean",[4],58.5 g/L
same,"UREA, urea, Mean",[4],9.54 mmol/L
same,"WBC, white blood cell, Mean",[4],4.85 10^3/μL
same,"sGLU, glucose, Mean",[4],8.25 mmol/L
same,"ALT, percent difference in mean values from concurrent controls","male rats, 3 mg/kg/wk, Day 15",19%
same,"ALT, percent difference in mean values from concurrent controls","male rats, 3.75→2.5 mg/kg/wk, Day 15",34%
same,"ALT, percent difference in mean values from concurrent controls",[5],275%
same,"sGLU, percent difference in mean values from concurrent controls",[5],−59.96%
same,#BASO Mean,[6],0.02 10^3/μL
same,#EOS Mean,[6],0.06 10^3/μL
same,#LYMP Mean,[6],7.94 10^3/μL
same,#MONO Mean,[6],0.21 10^3/μL
same,#NEUT Mean,[6],0.72 10^3/μL
same,#RET Mean,[6],337.2 10^9/L
same,% BASO Mean,[6],0.2%
same,% EOS Mean,[6],0.7%
same,% LYMP Mean,[6],88.2%
same,% MONO Mean,[6],2.5%
same,% NEUT Mean,[6],7.9%
same,% RET Mean,[6],4.68%
same,HCT Mean,[6],42.1* %
same,MCH Mean,[6],19.2 pg
same,MCHC Mean,[6],32.8 g/dL
same,MCV Mean,[6],58.3 fL
same,MPV Mean,[6],6.6 fL
same,PLT Mean,[6],1172 10^3/μL
same,RBC Mean,[6],7.22 10^6/μL
same,RDW Mean,[6],13.5** %
same,WBC Mean,[6],9.01 10^3/μL
same,#BASO % Diff,"male rats, Group 2, 3 mg/kg/wk, Day 15, vs Group 1",−25.00%
